{"source": "patent US4218443A", "about": "“Polyether ionophores as antiobesity and hypotriglyceridemic agents” (Hoffmann-La Roche Inc., priority 1979, dated 1980)", "key": {"[1]": {"tested_on": "rats in the five day two hour meal model", "experiment": "Five day two hour meal model", "type": "in vivo, rat", "conditions": "sodium salt, mean ± SE", "experimental": "A five day two hour meal model was developed to evaluate the effects of lipase inhibitors in vivo. [^14 C]-triolein and [^3 H]cholesterol were included in the 10% corn oil meal on days one and five. Test compound was administered as a dietary admix. Compound was first mixed into the fat component of the diet before the dry components were added. Food consumption and body weight gain were determined. Feces were collected from day two to day four. Rats were killed on day five and the small intestine and contents were removed for analysis."}, "human pancreatic lipase": {"target": "T1, human pancreatic lipase (Homo sapiens, UniProt P16233)", "T1 construct": "Human pancreatic juice was obtained from a patient with acute pancreatitis; from tissue; host or cells: human pancreatic juice from the cannulated duct of a patient with acute pancreatitis; gift of Dr. George Nardi, Massachusetts General Hospital", "T1 sequence (P16233 17-465)": "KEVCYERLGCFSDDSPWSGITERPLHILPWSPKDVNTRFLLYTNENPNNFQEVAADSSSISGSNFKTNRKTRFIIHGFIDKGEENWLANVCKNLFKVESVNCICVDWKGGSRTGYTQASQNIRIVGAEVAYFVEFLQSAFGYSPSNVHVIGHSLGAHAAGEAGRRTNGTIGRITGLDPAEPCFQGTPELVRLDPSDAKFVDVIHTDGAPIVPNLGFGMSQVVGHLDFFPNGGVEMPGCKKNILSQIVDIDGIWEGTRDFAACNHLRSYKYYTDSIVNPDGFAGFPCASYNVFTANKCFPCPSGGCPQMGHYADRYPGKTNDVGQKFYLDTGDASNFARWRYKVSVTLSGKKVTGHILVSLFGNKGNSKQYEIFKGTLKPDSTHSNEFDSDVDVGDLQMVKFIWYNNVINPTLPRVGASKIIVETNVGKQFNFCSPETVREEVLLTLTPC", "experiment": "In vitro titrimetric (Radiometer pH-stat) pancreatic lipase assay, Dixon plots", "type": "biochemical", "conditions": "Dixon plots"}, "[2]": {"tested_on": "obese and lean female Zucker rats", "experiment": "Chronic 21 day experiment in obese and lean Zucker rats", "type": "in vivo, Zucker rat", "conditions": "150 mg/kg b.i.d. oral, 21 days, sodium salt, mean ± SE", "text": "Ad libitum fed lean and genetically obese Zucker rats (140 days old) were used in one chronic study.\nFaster enzymatic procedure for serum triglycerides, Clinical Chemistry, 21: 1983-1985], cholesterol, [C. C. Allain, L. Poon, S. G. Chan, W. Richmond and P. Fu (1974). Enzymatic determination of total serum cholesterol, Clinical Chemistry, 20: 470-475] and glucose, [R. Konig, H. Dauwalder and R. Richterich (1971). Vergleichende Bestimmungen der Uringlucosekonzentration mit der Polarimetrie und einer enzymatischen Methode (Hexokinase/Glucose-6-Phosphat-Dehydrogenase), Schweiz. Med. Wschr., 101: 860-866], by enzymatic procedures and free fatty acids, [C. Dalton and C. Kowalski (1967). Automated colorimetric determination of free fatty acids in biologic fluids, Clinical Chemistry, 13: 744-751], by a Colorimetric procedure. Serum immunoreactive insulins were determined by radioimmunoassay, [G. F. Bryce, P. R. Johnson, A. C. Sullivan, J. S. Stern (1977). Insulin and glucagon: Plasma levels and pancreatic release in the gentically obese Zucker rat, Hormone and Metabolic Research, 9: 366-370].\nFIG. 2 sets forth body weight gain values of rats matched for initial body weight and pair fed 10% corn oil diet without dinitrodescarboxylasalocid and three groups of pair fed rats receiving 60, 120 and 240 mg/kg of dinitrodescarboxylasalocid as dietary admixes for 31 days respectively. […] Tables 12 and 13 describe the effects of dinitrodescarboxylasalocid (150 mg/kg b.i.d. by oral intubation) in genetically obese and lean Zucker rats for 21 days."}, "[3]": {"tested_on": "meal-fed Charles River rats", "experiment": "Food consumption and serum parameters in meal-fed rats (in vivo fatty acid synthesis experiments)", "design": "species or system Charles River rat", "conditions": "sodium salt, mean ± SE", "experimental": "In the following examples, female rats (Charles River CD strain, 180-200 g) were housed individually in wire bottom cages in a temperature (22°) and light (12 hr light and 12 hr dark) regulated room. They had free access to Purina Rodent Chow and water.\nFaster enzymatic procedure for serum triglycerides, Clinical Chemistry, 21: 1983-1985], cholesterol, [C. C. Allain, L. Poon, S. G. Chan, W. Richmond and P. Fu (1974). Enzymatic determination of total serum cholesterol, Clinical Chemistry, 20: 470-475] and glucose, [R. Konig, H. Dauwalder and R. Richterich (1971). Vergleichende Bestimmunogen der Uringlucosekonzentration mit der Polarimetrie und einer enzymatischen Methode (Hexokinase/Glucose-6-Phosphat-Dehydrogenase), Schweiz. Med. Wschr., 101: 860-866] by enzymatic procedures."}}, "data": [{"smiles": "CC[C@@H](C(=O)[C@@H](C)[C@@H](O)[C@H](C)CCc1c([N+](=O)[O-])cc(C)c(O)c1[N+](=O)[O-])[C@H]1O[C@](CC)([C@H]2CC[C@](O)(CC)[C@H](C)O2)C[C@@H]1C", "note": "[Dinitrodescarboxylasalocid]", "values": [{"measurement": "3H-Cholesterol in Feces", "setting": "[1]; 120 mg/kg dietary admix", "result": "28.6 ± 3.9 % of ingested"}, {"measurement": "14C in Feces", "setting": "[1]; 120 mg/kg dietary admix", "result": "2.4 ± 0.7 % of ingested"}, {"measurement": "Body weight gain (BWG)", "setting": "[1]; 120 mg/kg dietary admix", "result": "-1 ± 3", "unit": "g"}, {"measurement": "Fat Absorption", "setting": "[1]; 120 mg/kg dietary admix", "result": "95.6 ± 0.5", "unit": "%"}, {"measurement": "Intestinal Cholsterol Esters", "setting": "[1]; 120 mg/kg", "result": "7.7 ± 1.2 % of 14C-lipid"}, {"measurement": "Intestinal Contents 3H-cholesterol", "setting": "[1]; 120 mg/kg", "result": "1.7 ± 0.2", "unit": "% ingested"}, {"measurement": "Intestinal Contents 14C-lipid", "setting": "[1]; 120 mg/kg", "result": "0.75 ± 0.10", "unit": "% ingested"}, {"measurement": "Intestinal Free Fatty Acids", "setting": "[1]; 120 mg/kg", "result": "61.9 ± 1.3 % of 14C-lipid"}, {"measurement": "Intestinal Mono- and Diglyceride", "setting": "[1]; 120 mg/kg", "result": "15.3 ± 1.3 % of 14C-lipid"}, {"measurement": "Intestinal Triglyceride", "setting": "[1]; 120 mg/kg", "result": "9.1 ± 0.8 % of 14C-lipid"}, {"measurement": "3H-Cholesterol in Feces", "setting": "[1]; 240 mg/kg dietary admix", "result": "34.1 ± 2.6 % of ingested"}, {"measurement": "14C in Feces", "setting": "[1]; 240 mg/kg dietary admix", "result": "4.4 ± 0.8 % of ingested"}, {"measurement": "Body weight gain (BWG)", "setting": "[1]; 240 mg/kg dietary admix", "result": "-3 ± 2", "unit": "g"}, {"measurement": "Fat Absorption", "setting": "[1]; 240 mg/kg dietary admix", "result": "92.8 ± 0.7", "unit": "%"}, {"measurement": "Food Consumption", "setting": "[1]; 240 mg/kg dietary admix", "result": "7.2 ± 0.5", "unit": "g/day"}, {"measurement": "Intestinal Cholsterol Esters", "setting": "[1]; 240 mg/kg", "result": "7.1 ± 0.8 % of 14C-lipid"}, {"measurement": "Intestinal Contents 3H-cholesterol", "setting": "[1]; 240 mg/kg", "result": "1.2 ± 0.2", "unit": "% ingested"}, {"measurement": "Intestinal Contents 14C-lipid", "setting": "[1]; 240 mg/kg", "result": "0.66 ± 0.13", "unit": "% ingested"}, {"measurement": "Intestinal Free Fatty Acids", "setting": "[1]; 240 mg/kg", "result": "59.6 ± 2.6 % of 14C-lipid"}, {"measurement": "Intestinal Mono- and Diglyceride", "setting": "[1]; 240 mg/kg", "result": "15.9 ± 0.9 % of 14C-lipid"}, {"measurement": "Intestinal Triglyceride", "setting": "[1]; 240 mg/kg", "result": "10.3 ± 0.7 % of 14C-lipid"}, {"measurement": "type of inhibition from Dixon plots", "setting": "human pancreatic lipase", "result": "suggested competitive inhibition"}, {"measurement": "Ki", "setting": "human pancreatic lipase; in vitro Radiometer assay, read-out: inhibition constant (Ki)", "result": 20, "unit": "µM"}, {"measurement": "Body Weight Gain", "setting": "[2]; Fa/- (lean)", "result": "20 ± 4", "unit": "g"}, {"measurement": "Fat Absorption", "setting": "[2]; Fa/- (lean)", "result": "90.1 ± 0.9", "unit": "%"}, {"measurement": "Fecal Weight", "setting": "[2]; Fa/- (lean)", "result": "1.6 ± 0.1", "unit": "g"}, {"measurement": "Final Body Weight", "setting": "[2]; Fa/- (lean)", "result": "202 ± 5", "unit": "g"}, {"measurement": "Food Consumption", "setting": "[2]; Fa/- (lean)", "result": "16.8 ± 0.8", "unit": "g/day"}, {"measurement": "Serum Cholesterol", "setting": "[2]; Fa/- (lean)", "result": "84 ± 7", "unit": "mg/100 ml"}, {"measurement": "Serum Free Fatty Acids", "setting": "[2]; Fa/- (lean)", "result": "519 ± 58", "unit": "μeq/l"}, {"measurement": "Serum Glucose", "setting": "[2]; Fa/- (lean)", "result": "154 ± 6", "unit": "mg/100 ml"}, {"measurement": "Serum IRI (immunoreactive insulin)", "setting": "[2]; Fa/- (lean)", "result": "0.5 ± 0.1", "unit": "ng/mL"}, {"measurement": "Serum Triglycerides", "setting": "[2]; Fa/- (lean)", "result": "71 ± 5", "unit": "mg/100 ml"}, {"measurement": "Body Weight Gain", "setting": "[2]; fa/fa (obese)", "result": "61 ± 6", "unit": "g"}, {"measurement": "Fat Absorption", "setting": "[2]; fa/fa (obese)", "result": "93.0 ± 1.1", "unit": "%"}, {"measurement": "Fecal Weight", "setting": "[2]; fa/fa (obese)", "result": "2.1 ± 0.1", "unit": "g"}, {"measurement": "Final Body Weight", "setting": "[2]; fa/fa (obese)", "result": "352 ± 12", "unit": "g"}, {"measurement": "Food Consumption", "setting": "[2]; fa/fa (obese)", "result": "19.5 ± 0.9", "unit": "g/day"}, {"measurement": "Serum Cholesterol", "setting": "[2]; fa/fa (obese)", "result": "168 ± 6", "unit": "mg/100 ml"}, {"measurement": "Serum Free Fatty Acids", "setting": "[2]; fa/fa (obese)", "result": "668 ± 59", "unit": "μeq/l"}, {"measurement": "Serum Glucose", "setting": "[2]; fa/fa (obese)", "result": "201 ± 12", "unit": "mg/100 ml"}, {"measurement": "Serum IRI (immunoreactive insulin)", "setting": "[2]; fa/fa (obese)", "result": "8.3 ± 0.6", "unit": "ng/mL"}, {"measurement": "Serum Triglycerides", "setting": "[2]; fa/fa (obese)", "result": "178 ± 19", "unit": "mg/100 ml"}, {"measurement": "Food Consumption", "setting": "[3]; 60 mg/kg i.p.", "result": "15.7 ± 0.4", "unit": "g"}, {"measurement": "Food Consumption", "setting": "[3]; Experiment 1, 240 mg/kg p.o.", "result": "11.0 ± 0.8", "unit": "g"}, {"measurement": "Serum Cholesterol", "setting": "[3]; Experiment 1, 240 mg/kg p.o.", "result": "85 ± 7", "unit": "mg/100 ml"}, {"measurement": "Serum Glucose", "setting": "[3]; Experiment 1, 240 mg/kg p.o.", "result": "194 ± 9", "unit": "mg/100 ml"}, {"measurement": "Serum Triglycerides", "setting": "[3]; Experiment 1, 240 mg/kg p.o.", "result": "42 ± 5", "unit": "mg/100 ml"}, {"measurement": "Food Consumption", "setting": "[3]; Experiment 2, 60 mg/kg p.o.", "result": "8.8 ± 1.0", "unit": "g"}, {"measurement": "Serum Cholesterol", "setting": "[3]; Experiment 2, 60 mg/kg p.o.", "result": "84 ± 3", "unit": "mg/100 ml"}, {"measurement": "Serum Glucose", "setting": "[3]; Experiment 2, 60 mg/kg p.o.", "result": "165 ± 6", "unit": "mg/100 ml"}, {"measurement": "Serum Triglycerides", "setting": "[3]; Experiment 2, 60 mg/kg p.o.", "result": "40 ± 4", "unit": "mg/100 ml"}, {"measurement": "Food Consumption", "setting": "[3]; Experiment 2, 120 mg/kg p.o.", "result": "10.7 ± 1.0", "unit": "g"}, {"measurement": "Serum Cholesterol", "setting": "[3]; Experiment 2, 120 mg/kg p.o.", "result": "82 ± 6", "unit": "mg/100 ml"}, {"measurement": "Serum Glucose", "setting": "[3]; Experiment 2, 120 mg/kg p.o.", "result": "168 ± 7", "unit": "mg/100 ml"}, {"measurement": "Serum Triglycerides", "setting": "[3]; Experiment 2, 120 mg/kg p.o.", "result": "31 ± 2", "unit": "mg/100 ml"}, {"measurement": "Food Consumption", "setting": "[3]; Experiment 2, 240 mg/kg p.o.", "result": "9.4 ± 1.1", "unit": "g"}, {"measurement": "Serum Cholesterol", "setting": "[3]; Experiment 2, 240 mg/kg p.o.", "result": "76 ± 7", "unit": "mg/100 ml"}, {"measurement": "Serum Glucose", "setting": "[3]; Experiment 2, 240 mg/kg p.o.", "result": 183, "unit": "mg/100 ml"}, {"measurement": "Serum Triglycerides", "setting": "[3]; Experiment 2, 240 mg/kg p.o.", "result": "31 ± 5", "unit": "mg/100 ml"}]}]}
